Test results reported in patent US20240336938A1, “COMPOSITIONS AND METHODS FOR EFFECTIVE DELIVERY OF POLYNUCLEOTIDES TO CELLS” (WUHAN UNIVERSITY, priority 2021, published 2024).

Tests used:
STING [1] = test: STING inhibitor pretreatment of THP-1 cells before HSV-1 stimulation, qPCR; format: cell-based, human; details: THP1 cells, indicated doses
STING [2] = test: STING inhibitor pretreatment of T cells before DNA electroporation; format: cell-based, human

CCc1ccc(NC(=O)Nc2c[nH]c3ccccc23)cc1 [H151]
ISG56 and IFN-β response to HSV-1 (STING [1]): positive dose-response | IFNβ and ISG56 expression in DNA transfected T cells under inhibitor (STING [2]; 1 μM pretreatment, qPCR): upregulated | rescue of DNA-induced cell death (STING [2]; 1 μM, 16 h pretreatment, cell number 72 h post-EP): failed to rescue DNA-induced cell death
